Reference: patent US9896439B2, “Pyrazole-substituted arylamides as P2X3 and P2X2/3 antagonists” (Roche Palo Alto LLC, priority 2007, dated 2018)

How the values were obtained:
rat P2X3 receptor = target: T1, rat P2X3 receptor (Rattus norvegicus, UniProt P49654); test: P2X3 FLIPR (Fluorometric Imaging Plate Reader) assay; assay type: cell-based; settings: CHO-K1 cells transfected with cloned rat P2X3; agonist α,β-meATP 1 μM; Fluo-3 AM fluorescence; read-out: pIC50 for the P2X3 receptor (converted)
T1 construct: expressed in transfected cells; host or cells: CHO-K1
T1 sequence (P49654 1-397): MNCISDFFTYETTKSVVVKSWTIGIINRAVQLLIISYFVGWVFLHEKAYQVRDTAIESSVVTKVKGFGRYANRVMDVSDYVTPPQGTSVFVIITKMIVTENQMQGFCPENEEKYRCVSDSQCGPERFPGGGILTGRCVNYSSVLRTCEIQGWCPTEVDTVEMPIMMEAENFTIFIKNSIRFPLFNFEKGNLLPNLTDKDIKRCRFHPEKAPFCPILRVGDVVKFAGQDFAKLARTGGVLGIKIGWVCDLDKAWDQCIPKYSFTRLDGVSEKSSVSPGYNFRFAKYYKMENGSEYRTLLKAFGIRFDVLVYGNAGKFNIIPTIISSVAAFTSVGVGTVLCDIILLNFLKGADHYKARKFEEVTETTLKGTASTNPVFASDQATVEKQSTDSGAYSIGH
Method: (§1) CHO-K1 cells were transfected with cloned rat P2X3 or human P2X2/3 receptor subunits and passaged in flasks. 18-24 hours before the FLIPR experiment, cells were released from their flasks, centrifuged, and resuspended in nutrient medium at 2.5×10^5 cells/ml. The cells were aliquoted into black-walled 96-well plates at a density of 50,000 cells/well and incubated overnight in 5% CO2 at 37° C. On the day of the experiment, cells were washed in FLIPR buffer (calcium- and magnesium-free Hank's balanced salt solution, 10 mM HEPES, 2 mM CaCl2, 2.5 mM probenecid; FB). Each well received 100 μl FB and 100 μl of the fluorescent dye Fluo-3 AM [2 μM final conc.]. […]
(§2) Test compounds (dissolved in DMSO at 10 mM and serially diluted with FB) or vehicle were added to each well (25 μl of a 4× solution) and allowed to equilibrate for 20 minutes at room temperature. The plates were then placed in the FLIPR and a baseline fluorescence measurement (excitation at 488 nm and emission at 510-570 nm) was obtained for 10 seconds before a 100 μl/well agonist or vehicle addition. […] Fluorescence was measured for an additional 2 minutes at 1 second intervals after agonist addition. A final addition of ionomycin (5 μM, final concentration) was made to each well of the FLIPR test plate to establish cell viability and maximum fluorescence of dye-bound cytosolic calcium. […]

human P2X2/3 receptor = target: T2, human P2X2/3 receptor (Homo sapiens, UniProt P56373+Q9UBL9); test: P2X2/3 FLIPR (Fluorometric Imaging Plate Reader) assay; assay type: cell-based; settings: CHO-K1 cells transfected with human P2X2/3; agonist α,β-meATP 5 μM; Fluo-3 AM fluorescence; read-out: pKi for the P2X2/3 receptor (converted)
T2 construct: expressed in transfected cells; host or cells: CHO-K1
T2 sequence (Q9UBL9 1-471): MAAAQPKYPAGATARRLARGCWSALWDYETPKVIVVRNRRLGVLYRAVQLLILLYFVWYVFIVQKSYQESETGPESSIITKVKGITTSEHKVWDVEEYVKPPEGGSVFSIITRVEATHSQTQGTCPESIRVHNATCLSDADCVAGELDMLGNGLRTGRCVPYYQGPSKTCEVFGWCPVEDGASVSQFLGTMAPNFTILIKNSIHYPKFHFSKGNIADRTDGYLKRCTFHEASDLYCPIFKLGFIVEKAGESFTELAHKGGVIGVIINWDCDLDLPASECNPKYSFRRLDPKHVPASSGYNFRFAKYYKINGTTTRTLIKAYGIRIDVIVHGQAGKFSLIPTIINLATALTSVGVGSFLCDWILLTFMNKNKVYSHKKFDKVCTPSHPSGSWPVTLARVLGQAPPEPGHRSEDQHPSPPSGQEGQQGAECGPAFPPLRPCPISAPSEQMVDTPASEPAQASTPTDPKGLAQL
T2 sequence (P56373 1-397): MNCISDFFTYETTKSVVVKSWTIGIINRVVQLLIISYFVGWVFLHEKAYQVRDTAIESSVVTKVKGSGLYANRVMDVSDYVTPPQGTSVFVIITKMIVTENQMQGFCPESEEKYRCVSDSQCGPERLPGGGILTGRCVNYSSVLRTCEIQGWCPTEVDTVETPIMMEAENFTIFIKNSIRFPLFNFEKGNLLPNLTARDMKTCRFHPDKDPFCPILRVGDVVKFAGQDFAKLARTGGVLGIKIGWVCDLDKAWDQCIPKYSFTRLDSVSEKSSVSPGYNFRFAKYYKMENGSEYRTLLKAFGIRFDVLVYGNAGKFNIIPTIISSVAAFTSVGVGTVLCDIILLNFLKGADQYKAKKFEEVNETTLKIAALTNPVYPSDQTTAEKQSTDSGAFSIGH
Method: as §1, §2

## Cc1ccc(-c2cc(C(=O)N[C@@H](C)CO)cc(-c3ccnn3C3CCC3)c2)nc1 [Compound 70, 3-(2-Cyclobutyl-2H-pyrazol-3-yl)-N-((S)-2-hydroxy-1-methyl-ethyl)-5-(5-methyl-pyridin-2-yl)-benzamide]
Rat P2X3 receptor
  IC50: ~2.14 nM

## Cc1ccc(-c2cc(C(=O)NCc3ccc(C)nn3)cc(-n3nccc3CC(C)C)c2)nc1 [Compound 101, 3-(5-Isobutyl-pyrazol-1-yl)-N-(6-methyl-pyridazin-3-ylmethyl)-5-(5-methyl-pyridin-2-yl)-benzamide]
Human P2X2/3 receptor
  Ki: ~21.4 nM
